Measurements taken from PubChem BioAssay (NCI).
Values joined by “and” are separate entries in the source; they are usually repeats but may differ in a detail not shown here. Equal values may be shown once.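 Following 48 hours of exposure in 96-well plates, responses at five concentrations were used to interpolate endpoints linearly. The concentration for 50% growth inhibition is given as GI50. TGI marks complete inhibition of growth.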 Where a SMILES comes first, the peptide text is derived from it. [ ]: non-standard residue; d: D form. The star is where a group is joined. ξ: configuration not given here. ξD = NC(CC(=O)O)C(=O)O; Ac3c = NC1(C(=O)O)CC1; Boc = CC(C)(C)OC(=O)*; OBn = c1ccc(CO*)cc1

Experiments:
Assay in all cases: DTP human tumour cell line panel, 48 h
[1] = tested on: CAKI-1 renal
[2] = tested on: HCC-2998 colon
[3] = tested on: HCT-15 colon
[4] = tested on: NCI/ADR-RES ovarian
[5] = tested on: OVCAR-4 ovarian
[6] = tested on: OVCAR-5 ovarian
[7] = tested on: PC-3 prostate
[8] = tested on: SF-295 CNS
[9] = tested on: UACC-62 melanoma
[10] = tested on: BT-549 breast

Row | Compound | TGI [1] [µM] | TGI [2] | TGI [3] [µM] | TGI [4] [µM] | TGI [5] [µM] | TGI [6] | TGI [7] [µM] | TGI [8] | TGI [9] [µM] | TGI [10] [µM] | GI50 [1] [µM] | GI50 [6] [µM] | GI50 [8] [µM] | GI50 [10] [µM] | GI50 [2] [µM] | GI50 [3] [µM] | GI50 [4] [µM] | GI50 [7] [µM] | GI50 [9] [µM]
1 | O=C1CCC2(CC1CCSc1ccccc1)OCCO2 (stereo not drawn) | > 100 | > 100 µM | > 100 | > 100 | > 100 | > 100 µM | > 100 | > 100 µM | > 100 |  |  |  |  |  |  |  |  |  | 
2 | COCN1CCN=c2c1c1c3c(c4ccccc4n23)CCC1 | > 100 | > 100 µM | > 100 | > 100 | > 100 | > 100 µM | > 100 | > 100 µM | > 100 | > 100 |  |  |  |  |  |  |  |  | 
3 | Cc1cn(CC2=NCCCN2)c(=O)[nH]c1=O |  | > 100 µM | > 100 | > 100 |  | > 100 µM | > 100 | > 100 µM | > 100 | > 100 |  |  |  |  |  |  |  |  | 
4 | CN(C)CCCNc1c2ccccc2nc2cccc([N+](=O)[O-])c12 |  | 0.00194 µM and 0.0131 µM | 0.00142 | 0.186 | < 0.001 | 0.0214 µM and 0.0509 µM | 0.00244 | 0.0167 µM and 0.0867 µM |  | 0.0151 | < 0.001 | 0.0197 | < 0.001 |  |  |  |  |  | 
5 | C1#Cc2ccccc2OCCOc2ccccc2C#Cc2ccccc2OCCOc2ccccc21 | 40.7 |  | > 100 | > 100 | 30.6 | 65.2 µM | > 100 | > 100 µM | > 100 | 81.9 |  |  |  |  |  |  |  |  | 
6 | COC(=O)C1(NC(=O)C(CC(=O)OCc2ccccc2)NC(=O)OC(C)(C)C)CC1 (stereo not drawn) (Boc-[ξD](OBn)-[Ac3c]-OMe) | > 100 |  | > 100 | > 100 | > 100 | > 100 µM | > 100 | > 100 µM | 91.7 | > 100 |  |  |  |  |  |  |  |  | 
7 | Cc1cc2ccccc2n1CC(=O)N1CCCC1 |  | > 100 µM | > 100 | > 100 | > 100 | > 100 µM | > 100 |  | > 100 | > 100 |  |  |  |  |  |  |  |  | 
8 | S=c1nc2[nH]c3ccc(Br)cc3c2n[nH]1 | > 100 | > 100 µM | > 100 | > 100 | > 100 | > 100 µM | > 100 |  | > 100 | > 100 |  |  |  |  |  |  |  |  | 
9 | O=C1CSC2=NCC3(NN12)c1ccccc1-c1ccccc13 | > 10 | > 10 µM | > 10 | > 10 | > 10 |  | > 10 | > 10 µM | > 10 | > 10 |  |  |  |  |  |  |  |  | 
10 | CC(=O)OCc1cc(=O)n(C)c2c3c4c(cc12)c(C)cc(=O)n4CO3 | 33.9 | 4.61 µM | 37.8 | 10.9 | 6.56 | 20.5 µM |  | 6.49 µM | 3.58 |  |  |  |  |  |  |  |  |  | 
11 | Cc1cc(Nc2ccc(N=Nc3ccc(O)c4ncccc34)cc2)nc(C)n1 | 71 |  | 36 | 61 | 71.7 | > 87.9 µM | > 69.9 | > 80.4 µM | 24.6 | > 84.4 |  |  |  |  |  |  |  |  | 
12 | O=c1[nH]c(=O)n(COCc2ccccc2)c2ccc(Br)cc12 | > 100 |  | > 100 | > 100 | > 100 | > 100 µM |  | > 100 µM | > 100 |  |  |  |  |  |  |  |  |  | 
13 | OCC(Cn1cncn1)(c1ccc(F)cc1F)n1cncn1 (stereo not drawn) | > 100 | > 100 µM | > 100 | > 100 |  | > 100 µM | > 100 | > 100 µM | > 100 | > 100 |  |  |  |  |  |  |  |  | 
14 | CSc1nc(NC2OCC(O)C(O)C2O)c(N)c(=O)n1C (stereo not drawn) |  | > 100 µM | > 100 | > 100 | > 100 | > 100 µM |  | > 100 µM | > 100 |  |  |  |  |  |  |  |  |  | 
15 | Nc1ccccc1NC(=O)CCCCCCC(=O)Nc1ccc2c(c1)/C(=C/c1ccc[nH]1)C(=O)N2 |  | > 100 µM | > 100 | > 100 |  | > 100 µM | > 100 | > 100 µM | > 100 | > 100 |  | > 100 | > 100 | 0.391 | > 100 | > 100 | > 100 | 6.92 | > 100
16 | Cc1ccc(C)c(COCCOCn2cc(Br)c(N)nc2=O)c1 | > 100 | > 100 µM | > 100 | > 100 |  | > 100 µM | > 100 | > 100 µM | > 100 | > 100 |  |  |  |  |  |  |  |  | 
17 | CC(NC(=O)OCc1ccccc1)NC(=O)C(CC(=O)OC(C)(C)C)NC(=O)OC(C)(C)C (stereo not drawn) | > 100 |  | > 100 | > 100 | > 100 | > 100 µM | > 100 | > 100 µM | > 100 | > 100 |  |  |  |  |  |  |  |  | 
18 | Cc1ccc(NC(=S)Nc2c(C)n(C)n(-c3ccccc3)c2=O)cc1 | > 100 | > 100 µM | > 100 | > 100 |  | > 100 µM | > 100 | > 100 µM | > 100 | > 100 |  |  |  |  |  |  |  |  | 
19 | COc1cccc2c1C1(O)C2CCCC12OCCCO2 (stereo not drawn) | > 100 | > 100 µM | > 100 |  | > 100 | > 100 µM |  | > 100 µM | > 100 |  |  |  |  |  |  |  |  |  | 
20 | [N-]=[N+]=NC1CC(n2cc(COCC(F)(F)F)c(=O)[nH]c2=O)OC1CO (stereo not drawn) | > 100 | > 100 µM |  |  | > 100 | > 100 µM |  | > 100 µM | > 100 |  |  |  |  |  |  |  |  |  | 
21 | Nc1ccc(-c2nc3cc(F)ccc3s2)cc1I | 72.5 |  | > 66.5 | 54.3 | > 100 | 43 µM | > 100 | > 56.6 µM | 85.8 | 29.9 |  |  |  |  |  |  |  |  | 
22 | OCC(O)C1OC2CC1Nc1ccccc1N2 (stereo not drawn) | > 100 | > 100 µM | > 100 | > 100 |  |  | > 100 | > 100 µM | > 100 |  |  |  |  |  |  |  |  |  | 
23 | CC(C)(C)OC(=O)NC(Cc1ccc(O)cn1)C(N)=O (stereo not drawn) | > 100 | > 100 µM | > 100 | > 100 | > 100 | > 100 µM | > 100 | > 100 µM |  | > 100 |  |  |  |  |  |  |  |  | 
